These results are taken from publication PMC8840742 (Molecules, 2022).

Experiment [1] relates to SARS-CoV-2 B.1.1.7 (UK or Alpha variant). Kind of experiment: microbe, parasite or virus in culture. It counts as cell-based. The note with it: Severe acute respiratory syndrome coronavirus 2, Vero C1008; VeroE6 cells in presence of P-gp inhibitor.
Experiment [2] deals with SARS-CoV-2 B.1.617.2 (Indian or Delta variant). Kind of experiment: microbe, parasite or virus in culture. In kind it is cell-based. The note with it: Severe acute respiratory syndrome coronavirus 2, Vero C1008; VeroE6 cells in presence of P-gp inhibitor.

SMILES strings stand for the structures.

With `c1ccc(CCN2CCC(Oc3ccccc3-c3nc(-c4ccncc4)no3)C2)cc1` (centres unmarked) [Compound 1, 5-(2-((1-Phenethylpyrrolidin-3-yl)oxy)phenyl)-3-(pyridin-4-yl)-1,2,4-oxadiazole], the EC50 in experiment [1] worked out at 3 ± 1 µM; in experiment [2], 4 ± 2 µM.
